Read-outs that look alike come from different tables or passages of the source.
How the values were obtained:
[1] = target: GSK3α (GST-full length GSK3α) (Homo sapiens (Human), UniProt P49840); assay: GSK3α TR-FRET kinase assay; format: biochemical
Summary of the method: (§1)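 Readout: anti-pSer641 Tb antibody/streptavidin-d2 signal after 60 min, expressed as 665/615 ratio and fitted versus log concentration for IC50. Enzyme: 1 nM GST-GSK3 (α or β), compound-preincubated 30 min. Conditions: pH 7.5 Tris buffer with MgCl2, DTT, BSA; ATP at 4 or 2 μM, or 1 mM; 100 min.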

[2] = target: GSK3b (GST-full length GSK3b) (Homo sapiens (Human), UniProt P49841); assay: GSK3b TR-FRET kinase assay; format: biochemical
Sequence of GSK3b (GST-full length GSK3b) (P49841 whole entry): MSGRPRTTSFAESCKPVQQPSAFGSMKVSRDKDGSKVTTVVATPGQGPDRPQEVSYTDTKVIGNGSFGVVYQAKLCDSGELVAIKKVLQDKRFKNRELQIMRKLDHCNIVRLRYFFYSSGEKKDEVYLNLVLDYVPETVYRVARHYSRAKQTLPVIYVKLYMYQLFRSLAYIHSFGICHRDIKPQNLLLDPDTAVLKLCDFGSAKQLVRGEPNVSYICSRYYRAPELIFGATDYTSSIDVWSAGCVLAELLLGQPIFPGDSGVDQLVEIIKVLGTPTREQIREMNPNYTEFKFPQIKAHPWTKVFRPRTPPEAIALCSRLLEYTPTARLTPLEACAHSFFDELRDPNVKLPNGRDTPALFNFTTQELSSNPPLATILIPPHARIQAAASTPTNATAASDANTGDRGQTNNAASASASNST
Summary of the method: as §1

[3] = 1 nM GSK3α, 4 μM ATP, 30 minute preincubation, Table 16, read-out: GSK3-A TR-FRET BIOCHEMICAL (TR-FRET)
[4] = 1 nM GSK3b, 2 μM ATP, 30 minute preincubation, Table 16, read-out: GSK3-B TR-FRET BIOCHEMICAL (TR-FRET)
[5] = 1 nM GSK3α, 4 μM ATP, 30 minute preincubation, geometric mean, read-out: GSK3-A TR-FRET BIOCHEMICAL (TR-FRET), GMean, IC50
[6] = 1 nM GSK3b, 2 μM ATP, 30 minute preincubation, geometric mean, read-out: GSK3-B TR-FRET BIOCHEMICAL (TR-FRET), GMean, IC50
[7] = GSK3-A (TR-FRET 1 mM ATP), GMean, IC50, 1 mM ATP, geometric mean
[8] = GSK3-B (TR-FRET 1 mM ATP), GMean, IC50, 1 mM ATP, geometric mean

Sequence of GSK3α (GST-full length GSK3α) (P49840 whole entry): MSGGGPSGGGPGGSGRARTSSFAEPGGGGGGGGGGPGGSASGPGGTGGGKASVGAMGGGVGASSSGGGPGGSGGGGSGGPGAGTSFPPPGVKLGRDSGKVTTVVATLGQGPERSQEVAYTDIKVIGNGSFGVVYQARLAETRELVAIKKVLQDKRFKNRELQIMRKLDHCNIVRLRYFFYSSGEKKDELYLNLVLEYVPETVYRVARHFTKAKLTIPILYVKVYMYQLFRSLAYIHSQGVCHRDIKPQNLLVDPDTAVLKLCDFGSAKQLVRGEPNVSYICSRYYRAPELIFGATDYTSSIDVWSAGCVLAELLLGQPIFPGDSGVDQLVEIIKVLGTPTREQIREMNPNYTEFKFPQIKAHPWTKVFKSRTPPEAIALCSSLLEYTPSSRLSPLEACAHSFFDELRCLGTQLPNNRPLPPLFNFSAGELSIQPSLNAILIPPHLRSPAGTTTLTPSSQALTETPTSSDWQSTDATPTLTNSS

IC50 [1, 3] [nM] | IC50 [2, 4] [nM] | IC50 [1, 5] [nM] | IC50 [2, 6] [nM] | Compound | other results
≤ 100 | ≤ 100 |  |  | Cn1nc(C(F)(F)F)cc1S(=O)(=O)N1CCC2(CC1)C1=C(CC(C)(C)CC1=O)Nc1n[nH]cc12 [Compound 947606] | 
≤ 100 | ≤ 100 |  |  | CC(C)n1cc(S(=O)(=O)N2CCC3(CC2)C2=C(CC(C)(C)CC2=O)Nc2n[nH]cc23)cn1 [Compound 947607] | 
≤ 100 | ≤ 100 |  |  | Cc1cc(S(=O)(=O)N2CCC3(CC2)C2=C(CC(C)(C)CC2=O)Nc2n[nH]cc23)n(C)n1 [Compound 947608] | 
≤ 100 | 100 to 1000 |  |  | CCn1nc(C)cc1S(=O)(=O)N1CCC2(CC1)C1=C(CC(C)(C)CC1=O)Nc1n[nH]cc12 [Compound 947609] | 
≤ 100 | ≤ 100 |  |  | CC1(C)CC(=O)C2=C(C1)Nc1n[nH]cc1C21CCN(S(=O)(=O)c2cnc3ccccn23)CC1 [Compound 947610] | 
≤ 100 | ≤ 100 |  |  | Cc1ncc(S(=O)(=O)N2CCC3(CC2)C2=C(CC(C)(C)CC2=O)Nc2n[nH]cc23)o1 [Compound 947611] | IC50 [1, 7]: 100 to 1000 nM; IC50 [2, 8]: 100 to 1000 nM
≤ 100 | ≤ 100 |  |  | COc1ccc(S(=O)(=O)N2CCC3(CC2)C2=C(CC(C)(C)CC2=O)Nc2n[nH]cc23)cc1Cl [Compound 947612] | 
≤ 100 | ≤ 100 |  |  | CC1(C)CC(=O)C2=C(C1)Nc1n[nH]cc1C21CCN(S(=O)(=O)c2cccnc2)CC1 [Compound 947613] | IC50 [1, 7]: 100 to 1000 nM; IC50 [2, 8]: 1000 to 5000 nM
≤ 100 | ≤ 100 |  |  | CC1(C)CC(=O)C2=C(C1)Nc1n[nH]cc1C21CCN(S(=O)(=O)c2cnn3ccccc23)CC1 [Compound 947615] | 
≤ 100 | ≤ 100 |  |  | Cc1cc(S(=O)(=O)N2CCC3(CC2)C2=C(CC(C)(C)CC2=O)Nc2n[nH]cc23)cc(C)n1 [Compound 947616] | IC50 [1, 7]: 100 to 1000 nM; IC50 [2, 8]: 1000 to 5000 nM

Further lines, the compound ahead of its results:

Compound | IC50 [1, 3] [nM] | IC50 [2, 4] [nM] | IC50 [1, 5] [nM] | IC50 [2, 6] [nM] | other results
CC[C@@]1(c2cccc(-c3c(F)cncc3OC)c2)C2=C(CC(C)(C)CC2=O)Nc2n[nH]cc21 [Compound 947511] | ≤ 100 | ≤ 100 |  |  | IC50 ([1]; read-out: GSK3-A (TR-FRET 1 mM ATP), GMean, IC50, 1 mM ATP, geometric mean): ≤ 100 nM; IC50 ([2]; read-out: GSK3-B (TR-FRET 1 mM ATP), GMean, IC50, 1 mM ATP, geometric mean): ≤ 100 nM
CCC1(c2cccc(Cc3ncccc3C(F)(F)F)c2)C2=C(CC(C)(C)CC2=O)Nc2n[nH]cc21 (centres unmarked) [Compound 947548] | 100 to 1000 | 100 to 1000 |  |  | 
CCC1(c2cccc(S(=O)(=O)C3CC3)c2)C2=C(CC(C)(C)NC2=O)Nc2n[nH]c(C)c21 (centres unmarked) [Compound 947562] |  |  | ≤ 100 | ≤ 100 | 
CCC1(c2cccc(-c3ccnc(C)c3F)c2)C2=C(CC(C)(C)NC2=O)Nc2n[nH]c(C)c21 (centres unmarked) [Compound 947563] |  |  | ≤ 100 | 100 to 1000 | 
CCC1(c2cccc(N3CCOCC3)c2)C2=C(CC(C)(C)NC2=O)Nc2n[nH]c(C)c21 (centres unmarked) [Compound 947564] |  |  | 100 to 1000 | 100 to 1000 | 
CCC1(c2cccc(N3CCCCC3)c2)C2=C(CC(C)(C)NC2=O)Nc2n[nH]cc21 (centres unmarked) [Compound 947566] |  |  | 1000 to 5000 | 1000 to 5000 | 
CCC1(c2cccc(-c3c(C)nn(C)c3C)c2)C2=C(CC(C)(C)NC2=O)Nc2n[nH]c(C(F)(F)F)c21 (centres unmarked) [Compound 947568] |  |  | ≤ 100 | ≤ 100 | 
CCC1(c2cccc(-c3ccncc3S(C)(=O)=O)c2)C2=C(CC(C)(C)CC2=O)Nc2n[nH]cc21 (centres unmarked) [Compound 947569] | ≤ 100 | ≤ 100 |  |  | 
CC[C@]1(c2cccc(-c3c(C)nn(C)c3C)c2)C2=C(CC(C)(C)NC2=O)Nc2n[nH]c(C)c21 [Compound 947573] |  |  | 100 to 1000 | 1000 to 5000 | 
CC[C@]1(c2cccc(-c3ccncc3C)c2)C2=C(CC(C)(C)NC2=O)Nc2n[nH]cc21 [Compound 947574] |  |  | ≤ 100 | ≤ 100 | 
CCC1(c2cccc(-c3c(C)nn(C)c3C)c2)C2=C(CC(C)(C)NC2=O)Nc2n[nH]c(C)c21 (centres unmarked) [Compound 947575] |  |  | ≤ 100 | ≤ 100 | 
CCC1(c2cccc(-c3ccncc3C)c2)C2=C(CC(C)(C)NC2=O)Nc2n[nH]cc21 (centres unmarked) [Compound 947576] |  |  | ≤ 100 | 1000 to 5000 | 
COCc1cccc(S(=O)(=O)N2CCC3(CC2)C2=C(CC(C)(C)CC2=O)Nc2n[nH]cc23)c1 [Compound 947605] | ≤ 100 | ≤ 100 |  |  | 
Cc1cnc2c(S(=O)(=O)N3CCC4(CC3)C3=C(CC(C)(C)CC3=O)Nc3n[nH]cc34)cccc2c1 [Compound 947614] |  |  |  |  | IC50 ([1]; 1 nM GSK3α, 4 μM ATP, 30 minute preincubation, read-out: GSK3-A TR-FRET BIOCHEMICAL (TR-FRET), IC50): ≤ 100 nM; IC50 ([2]; 1 nM GSK3b, 2 μM ATP, 30 minute preincubation, read-out: GSK3-B TR-FRET BIOCHEMICAL (TR-FRET), IC50): ≤ 100 nM
